The text below walks through data of patent publication US10183008B2, “Treatment of prolonged status epilepticus” (University of South Carolina, priority 2011, dated 2019).

Assay [1] has as its system lithium-pilocarpine model of S.E. Put plainly: Lithium-pilocarpine model of status epilepticus, behavioral seizure scoring (Racine scale). It is filed as in vivo, rat. The conditions noted are these: for termination of brief behavioral convulsions: postnatal 20-25 day male rats, drug i.p. at onset of first stage 3 convulsion, score 15 min after. As to the method: The ED50 was determined based on the fit of the sigmoidal dose-response curve.
Experiments were performed on male rats age 5-65 days. SE was induced using lithium pilocarpine. Brief SE was defined as the onset of stage 3 seizures. Prolonged SE was defined as 45 minutes of SE following the first stage 3 seizure.
Status epilepticus was induced in male Sprague Dawley rats (5-65 days old; Harlan Sprague Dawley, Indianapolis, Ind.) by intraperitoneal injection of lithium chloride (LiCl) at 127 mg/kg followed 15-20 hr later by scopolamine methylbromide (2 mg/kg) and then pilocarpine at 60 mg/kg. After pilocarpine injection, the rats were observed continuously for occurrence of behavioral seizures. Seizures were scored according to the Racine scale with slight modifications: 0-normal behavior; 1-immobile, staring, curled-up posture; 2-automatisms: repetitive blinking, chewing, headbobbing, vibrissae twitching, scratching, face-washing; 3-forelimb/hindlimb myoclonic jerking, head tremor; 4-rearing, whole body clonus; 5-loss of posture, rearing and falling. EEG recordings, have established that the cortical electrographic onset of SE corresponds to the onset of forelimb clonus, or stage 3 seizures. Therefore, diazepam or stiripentol was administered either at the onset of S3 seizures (brief SE) or 45 min after S3 seizure onset (prolonged SE). The seizure scores were taken continuously, but specifically 15 mins after the first S3 seizure, and 15 mins after treatment. The scores represented in the data were recorded 15 minutes following treatment. Solutions of lithium, scopolamine, pilocarpine and stiripentol were made fresh on the day of the experiments. Lithium, scopolamine and pilocarpine were dissolved in 0.9% saline. Stiripentol was dissolved in 20% propylene glycol and 80% ethanol. Diazepam was purchased commercially in a solution of 10% propylene glycol and 80% ethanol. All drugs were administered via intraperitoneal (i.p) injection.

In assay [2] the test system is prolonged SE. Particulars: 45 minutes after onset; cited from earlier work.
The test system of assay [3] is tonic inhibition (GABAergic tonic current). Briefly: Brain slice whole-cell electrophysiology: tonic current in dentate granule cells. It is filed as cell-based, rat. Particulars: for effect on tonic inhibition: 1 μM DZP, 100 μM STP.
The test system of assay [4] is GABAAR subunit combinations. Particulars: STP 100 μM, GABA 0.3 μM, n=5-9, HEK-293T; cited from earlier work.

The structures appear in SMILES notation.

With `CN1C(=O)CN=C(c2ccccc2)c2cc(Cl)ccc21` [DZP, diazepam], in assay [1], the “termination of brief behavioral convulsions” value is on record as “terminate brief behavioral convulsions”. The “pharmacoresistance following prolonged SE (shift of ED50 for seizure termination)” value in assay [1] (prolonged SE (45 min after stage 3 onset) vs brief SE) is on record as “develops pharmacoresistance”. Further, in assay [2], the “fold decrease in efficacy at terminating prolonged SE” value is on record as 9-10 fold. The “effect on tonic inhibition” value in assay [3] is given as “increase tonic inhibition”. Further, the “potentiation of tonic current during prolonged SE” value in assay [3] (prolonged SE, DZP 1 μM, STP 100 μM, n=3-4) is recorded as “less effective at potentiating tonic current”.

With `CC(C)(C)C(O)/C=C/c1ccc2c(c1)OCO2` (stereo not drawn) [STP, 1-(3,4-methylenedioxyphenyl)-4,4-dimethylpent-1-en-3-ol], the “effect on GABA current” value in assay [4] is “increases GABA (0.3 μM) current at all tested GABAAR subunit combinations”. Moreover, the “anticonvulsant effect in 60-65 compared to 20-25 day old rats” value in assay [1] (age comparison) is recorded as “reduced”. In addition, the “termination of brief behavioral convulsions” value in assay [1] is “terminate brief behavioral convulsions”. Further, the “effect on tonic inhibition” value in assay [3] is given as “increase tonic inhibition”.
